Results from patent publication US10077241B2 (Janssen Pharmaceutica NV, priority 2014, dated 2018).

Columns and labels:
TGR5 (STC1 cell line) = biological target: T1, TGR5 (STC1 cell line) (Mus musculus, UniProt Q80SS6); test: STC1 cAMP Agonist EC50 Determination
T1 sequence (Q80SS6 1-329): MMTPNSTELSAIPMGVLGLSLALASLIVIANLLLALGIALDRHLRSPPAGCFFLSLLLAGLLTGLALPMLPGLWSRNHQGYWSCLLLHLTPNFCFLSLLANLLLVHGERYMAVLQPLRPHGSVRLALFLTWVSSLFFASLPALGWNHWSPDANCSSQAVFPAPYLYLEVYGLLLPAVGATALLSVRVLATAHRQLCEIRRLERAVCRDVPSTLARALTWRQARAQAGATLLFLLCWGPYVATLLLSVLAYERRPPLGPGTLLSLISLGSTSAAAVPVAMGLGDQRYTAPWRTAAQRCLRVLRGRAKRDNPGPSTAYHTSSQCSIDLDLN

[1] = biological target: T2, TGR5 (NCI-H716 cell line) (Homo sapiens, UniProt Q8TDU6); test: NCI-H716 cAMP Agonist EC50 Determination
T2 sequence (Q8TDU6 1-330): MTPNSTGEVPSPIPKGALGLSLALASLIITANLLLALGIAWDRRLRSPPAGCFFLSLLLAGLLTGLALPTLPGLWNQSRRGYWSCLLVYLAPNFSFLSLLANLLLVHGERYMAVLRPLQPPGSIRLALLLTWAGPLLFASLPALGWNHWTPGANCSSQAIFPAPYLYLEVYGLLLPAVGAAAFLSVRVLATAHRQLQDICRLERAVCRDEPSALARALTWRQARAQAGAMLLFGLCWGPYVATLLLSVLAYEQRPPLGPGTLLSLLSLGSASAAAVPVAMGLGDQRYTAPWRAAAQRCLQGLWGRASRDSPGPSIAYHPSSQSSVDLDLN
Protocol: Cells were cultured in suspension using RPM containing: 10% HI FBS, and 1× Penn/Strep and were cryostored (1E7 cells/vial in 5% DMSO).
A Normalized signal (NS) is generated by the Envision for each well ((Read 1/Read 2)×10,000).
The data from the Envision were imported to an Excel worksheet. nM cAMP is calculated for each well from the cAMP standard curves located on each plate by first calculating the slope and deriving the intercept (b).
[formula] [formula] [formula] EC50 values were determined from a 4-point fit (Hill equation) of a single 11-point compound dosing.

| SMILES | EC50 (TGR5 (STC1 cell line)) | EC50 [1] |
| --- | --- | --- |
| C=C1COC(c2ccc(OC)c(OC)c2)c2c1nc(SCc1c(F)cccc1Cl)n2-c1ccc(F)cc1 (stereo not drawn) [Example 136, 2-((2-chloro-6-fluorobenzyl)thio)-4-(3,4-dimethoxyphenyl)-3-(4-fluorophenyl)-7-methylene-3,4,6,7-tetrahydropyrano[3,4-d]imidazole] | 1.53 µM | > 50 µM |
| C=C1COC(c2ccc(Cl)c(OC)c2)c2c1nc(SCc1c(F)cccc1Cl)n2-c1ccc(F)cc1 (stereo not drawn) [Example 137, 4-(4-chloro-3-methoxyphenyl)-2-((2-chloro-6-fluorobenzyl)thio)-3-(4-fluorophenyl)-7-methylene-3,4,6,7-tetrahydropyrano[3,4-d]imidazole] | 0.88 µM | > 50 µM |
| C=C1COC(c2ccc(F)c(OC)c2)c2c1nc(SCc1c(F)cccc1Cl)n2-c1ccc(F)cc1 (stereo not drawn) [Example 138, 4-(4-Fluoro-3-methoxyphenyl)-2-((2-chloro-6-fluorobenzyl)thio)-3-(4-fluorophenyl)-7-methylene-3,4,6,7-tetrahydropyrano[3,4-d]imidazole] | 3.26 µM | > 50 µM |
